Holding throughout (experiment): NCI tumour cell line growth inhibition, 48 h
For experiment [1], the system named is SK-MEL-2 melanoma.
The test system of experiment [2] is UACC-257 melanoma.
The subject of experiment [3] is TK-10 renal.
Experiment [4] relates to PC-3 prostate.
In experiment [5] the test system is HCT-15 colon.
Experiment [6] deals with HOP-62 NSCLC.
The test system of experiment [7] is RXF 393 renal.
For experiment [8], the system named is SK-OV-3 ovarian.
For experiment [9], the system named is MCF7 breast.
The test system of experiment [10] is SF-295 CNS.

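The compound was tested at five concentrations on cells cultured in 96-well plates, with a 48-hour exposure period. GI50 marks 50% less growth. TGI: total growth inhibition.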

Turning to `CNC(=O)c1cc(-c2ccc(F)cc2)cc(-c2ccc(S(=O)(=O)N3CCCC3)cc2)c1N`, the GI50 in experiment [1] is more than 25 µM; in [2], more than 22.6 µM; in [3], more than 25 µM; in [4], 8.54 µM; in experiment [5] it was 9.68 µM; in [6], more than 25 µM. For the same compound, the GI50 was 14.7 µM in experiment [7], more than 25 µM in experiment [8], 8.79 µM in experiment [9] and 10.6 µM in [10]. Further, the TGI in experiment [1], in [2], in experiment [3], in experiment [4], in experiment [5] and in [6] was more than 25 µM throughout. For the same compound, the TGI in experiment [7], in experiment [8], in experiment [9] and in experiment [10] was more than 25 µM in each case.
